Laboratory results: US20240207265A1, “TREATMENT OF CNS DISEASES WITH sGC STIMULATORS” (Tisento Therapeutics Inc., priority 2021, published 2024)

Test system: sleep-stage specific pharmaco-EEG
Assay: Sleep-wake pharmaco-EEG in telemeter-implanted rats
Type: in vivo, rat
From the text: Young adult male Sprague-Dawley (SD) rats (˜275-325 grams on arrival) from Envigo (Indianapolis, IN) were used in the study. Upon receipt, rats were assigned unique identification numbers and housed with 3 rats per cage in polycarbonate cages with micro-isolator filter tops. All rats were examined and weighed prior to initiation of the study to assure adequate health and suitability. During the course of the study, 12/12 light/dark cycles were maintained. The room temperature was maintained between […] and 23° C. with a relative humidity maintained around 50%. Chow and water were provided ad libitum for the duration of the study. Following surgery, rats were single housed. After a period of recovery (7-10 days), animals were transferred to an EEG recording room and placed over a DSI receiver for recordings.
• a. Vehicle A • i. Route: PO • ii. Volume: 10 ml/kg • iii. Formulation: Water • b. Compound I-14 at 3 mg/kg • i. Route: PO • ii. Volume: 10 ml/kg • iii. Formulation: 3 mg/kg in water • c. Compound I-14 at 10 mg/kg • i. Route: PO • ii. Volume: 10 ml/kg • iii. Formulation: 10 mg/kg in water • d. Compound I-14 at 30 mg/kg • i. Route: PO • ii. Volume: 10 ml/kg • iii. Formulation: 30 mg/kg in water
Briefly, animals were implanted with DSI Telemetry devices (F50-EET) in a 3 channel (lead pairs) configuration. Note the positive and negative lead placements for each location. Each of the EEG channels on the DSI transmitter functions as a differential input whereby the differential input measures the difference between the positive and negative leads. Frontal/Parietal (right): (+) 2 mm Anterior, 2 mm Lateral; (−) 4 mm Posterior, 2 mm Lateral; Frontal/Frontal (bihemispheric): (+) 2 mm Anterior, 2 mm Lateral (right); (−) 2 mm Anterior, 2 mm Lateral (left); and neck EMG.
This study followed a Monday and Thursday dosing/recording schedule, where Baseline EEG was recorded 2 hours and then rats received first dose of Compound I-14 at 0.3, 3 or 10 mg/kg or Vehicle A (all orally) between 7:50-8:00 AM and a second dose of the same after about 12 hours, and EEG continued 12 hours afterwards. • EEG Recordings began at 6 AM (at time lights turn on) • Dosing occurred at 7:50 am AM (1 hour 50 minutes after lights ON) • 2nd dosing (same compound) occurred at 7:50 PM (1 hour and 50 minutes after lights OFF) • EEG Recordings continued until 7:50 AM the following day (24 hours after 1st dose and 12 hours after 2nd dose).
Animals were tested in a cross-over design with at least 72-hour washout period between doses. On each testing day, animals received compound or vehicle orally just under 2 hours (7:50 AM) after lights on (6:00 AM). Data were recorded from 2 hours prior to dosing and recorded continuously for 24 hours post dose.
Raw EEG recordings were manually scored using Neuroscore software (Data Sciences International) to identify sleep stages: Active Wake, Quiet Wake, NREM and REM. Using NeuroScore (DSI), artifacts were removed offline from the data and sleep stages assigned manually for every 10 s epoch using EEG, EMG and Locomotor activity (LMA) by conventional methods as previously described (Ivarsson et al., 2005; Parmentier-Batteur et al., 2012; Leiser et al., 2014, 2015) using the fronto-parietal EEG, LMA and EMG: active wake (less regular, low-amplitude EEG with high EMG and LMA activity); quiet wake (less regular, low-amplitude EEG, with low EMG and no LMA activity); NREM (consisting of high-amplitude irregular waves with predominant delta (1-4 Hz), low EMG and no LMA); REM sleep (stable, low-amplitude waves dominated by theta (4-8 Hz) with near absent EMG and no LMA).
The sleep stage data were exported from a Neuroscore report template of sleep state time per each 15 min (2 hours pre-dose to 4 hours post-dose). The onset of the first sleep and first REM were also reported directly from a Neuroscore report template. […]

Structure (SMILES): Cc1cc(F)c(Cc2nc(-c3ncc(F)c(O)n3)cn3ccnc23)cc1F [Compound I-14, 5-fluoro-2-(8-(2,5-difluoro-4-methylbenzyl)imidazo[1,2-a]pyrazin-6-yl)pyrimidin-4-ol]
- EEG spectral power in QW (3 mg/kg PO): increased low gamma 0-180 minutes post dose
- EEG spectral power in QW (30 mg/kg PO): increased low gamma 0-240 and high gamma 0-180 minutes post dose
- EEG spectral power in NREM (30 mg/kg PO, ˜0-300 minutes post dose): decreased delta, theta, alpha and increased low and high gamma
- REM and NREM in hypnograms vs vehicle (A) group (high dose (30 mg/kg) PO): notable decrease in REM and NREM
- onset of NREM, REM and REM latency (high dose (30 mg/kg) PO): delayed
- Quiet Wake in hypnograms (highest dose (30 mg/kg) PO): increase in Quiet Wake
